Consider 24 compounds from patent US9771352B2, “Hydroxyalkyl-substituted phenyltriazole derivatives and uses thereof” (BAYER PHARMA AKTIENGESELLSCHAFT, priority 2014, dated 2017).

One test deals with T1, human V2 receptor (Homo sapiens, UniProt P30518).
T1 construct: expressed in transfected cells; host or cells: CHO K1 (ATCC) expressing firefly luciferase under a CRE-responsive promoter
Nature of the test: Cellular in vitro assay for determining vasopressin receptor activity, V2 receptor cell line (CRE-luciferase). The class given is cell-based. The note with it: CHO cell line transfected with human V2 receptor; [Arg8]-vasopressin at EC50; compounds of the invention (Table 1A); read-out: IC50 hV2. The method, then: (§1) The identification of agonists and antagonists of the V1a and V2 vasopressin receptors from humans, rats and dogs as well as the quantification of the activity of the compounds of the invention is carried out using recombinant cell lines. These cell lines originally derive from a hamster's ovary epithelial cell (Chinese Hamster Ovary, CHO K1, ATCC: American Type Culture Collection, Manassas, Va. 20108, USA). The test cell lines constitutively express the human, rat or dog V1a or V2 receptors. In case of the […] V1a receptors, cells are also stably transfected with a modified form of the calcium-sensitive photoproteins aequorin (human and rat V1a) or obelin (dog V1a), which, after reconstitution with the cofactor coelenterazine, emit light when there are increases in free calcium concentrations [Rizzuto R, Simpson A W, Brini M, Pozzan T, Nature 358, 325-327 (1992); Illarionov B A, Bondar V S, Illarionova V A, Vysotski E S, Gene 153 (2), 273-274 (1995)]. The resulting vasopressin receptor cells react to stimulation of the recombinantly expressed V1a receptors by intracellular release of calcium ions, which can be quantified by the resulting photoprotein luminescence. The Gs-coupled V2 receptors are stably transfected into cell lines expressing the gene for firefly luciferase under control of a CRE-responsible promoter. Activation of V2 receptors induces the activation of the CRE-responsive promoter via cAMP increase, thereby inducing the expression of firefly luciferase. The light emitted by photoproteins of V1a cell lines as well as the light emitted by firefly luciferase of V2 cell lines corresponds to the activation or inhibition of the respective vasopressin receptor. The bioluminescence of the cell lines is detected using a suitable luminometer [Milligan G, Marshall F, Rees S, Trends in Pharmacological Sciences 17, 235-237 (1996)].
On the day before the assay, the cells are plated out in culture medium (DMEM/F12, 2% FCS, 2 mM glutamine, 10 mM HEPES) in 384-well microtiter plates and kept in a cell incubator (96% humidity, 5% v/v CO2, 37° C.). […] Upon addition of the cell lysis reagent Triton and the substrate luciferin, luminescence of firefly luciferase is measured in a luminometer.
(§2) Table 1A below lists individual IC50 values for the compounds of the invention (including diastereomeric mixtures as well as separated, enantiopure diastereomers) that were obtained from cell lines transfected with the human V1a or V2 receptor: […]

A further test has as its target T2, human V1a receptor (Homo sapiens, UniProt P37288).
T2 construct: expressed in transfected cells; host or cells: CHO K1 (ATCC), also stably transfected with modified aequorin
Nature of the test: Cellular in vitro assay for determining vasopressin receptor activity, V1a receptor cell line (photoprotein luminescence). The class given is cell-based. The note with it: CHO cell line transfected with human V1a receptor; [Arg8]-vasopressin at EC50; compounds of the invention (Table 1A); read-out: IC50 hV1a. The method, then: as §1
On the day before the assay, the cells are plated out in culture medium (DMEM/F12, 2% FCS, 2 mM glutamine, 10 mM HEPES, 5 μg/ml coelenterazine) in 384-well microtiter plates and kept in a cell incubator (96% humidity, 5% v/v CO2, 37° C.). On the day of the assay, test compounds in various concentrations are placed for 10 minutes in the wells of the microtiter plate before the agonist [Arg^8]-vasopressin at EC50 concentration is added. The resulting light signal is measured immediately in the luminometer.
as §2

Another test concerns conscious rats. Nature of the test: Diuresis investigations in conscious rats kept in metabolism cages. The conditions noted are these: Rattus norvegicus, po, read-out: Urinary volume. The class given is in vivo, Wistar rats. The method, then: Wistar rats (220-450 g body weight) are kept with free access to feed (Altromin) and drinking water. During the experiment, the animals are kept with free access to drinking water for 4 to 8 or up to 24 hours individually in metabolism cages suitable for rats of this weight class (Tecniplast Deutschland GmbH, D-82383 HohenpeiBenberg). At the beginning of the experiment, the animals are administered the test substance in a volume of 1 to 3 ml/kg body weight of a suitable solvent by means of gavage into the stomach. Control animals only receive solvent. Controls and substance tests are carried out in parallel on the same day. Control groups and substance-dose groups each consist of 4 to 8 animals. During the experiment, the urine excreted by the animals is collected continuously in a receiver at the base of the cage. The volume of urine per time unit is determined separately for each animal, and the concentration of urinary electrolytes is measured by standard methods of flame photometry. Before the beginning of the experiment, the body weight of the individual animals is determined.

In general, IC50 refers to the concentration needed to halve the response being measured.

Each structure is given as a SMILES string.

T2 sequence (P37288 whole entry): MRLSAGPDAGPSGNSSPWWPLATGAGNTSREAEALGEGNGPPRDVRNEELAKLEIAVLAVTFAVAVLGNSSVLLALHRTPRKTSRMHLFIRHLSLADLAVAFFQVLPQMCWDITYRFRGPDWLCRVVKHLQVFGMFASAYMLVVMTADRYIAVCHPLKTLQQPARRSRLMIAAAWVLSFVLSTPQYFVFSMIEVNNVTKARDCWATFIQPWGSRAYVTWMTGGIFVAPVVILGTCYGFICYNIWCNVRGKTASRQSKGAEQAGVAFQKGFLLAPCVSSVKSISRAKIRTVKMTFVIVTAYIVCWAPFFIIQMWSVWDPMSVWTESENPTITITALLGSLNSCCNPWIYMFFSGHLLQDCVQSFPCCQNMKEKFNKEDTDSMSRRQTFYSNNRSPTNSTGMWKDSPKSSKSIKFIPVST
T1 sequence (P30518 whole entry): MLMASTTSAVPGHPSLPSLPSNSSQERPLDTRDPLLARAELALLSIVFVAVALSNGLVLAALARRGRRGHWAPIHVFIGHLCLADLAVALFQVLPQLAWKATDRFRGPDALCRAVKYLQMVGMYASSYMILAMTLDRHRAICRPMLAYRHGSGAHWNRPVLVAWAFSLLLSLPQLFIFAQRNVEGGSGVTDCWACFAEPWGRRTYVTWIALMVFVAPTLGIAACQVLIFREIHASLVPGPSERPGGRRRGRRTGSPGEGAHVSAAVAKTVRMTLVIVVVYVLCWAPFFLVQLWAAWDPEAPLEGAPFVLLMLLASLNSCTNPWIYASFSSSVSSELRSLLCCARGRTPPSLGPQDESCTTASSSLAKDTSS

Consider `CC(O)c1nc(Cn2nc(-c3ccc(Cl)cc3)n(C[C@H](O)C(F)(F)F)c2=O)nn1-c1cc(F)cc(Cl)c1` (single isomer, unassigned) [Example 14], for which the IC50 was found to be 0.4 nM on human V2 receptor and 1.3 nM on human V1a receptor. The response vs control in vivo at 1 mg/kg in the test on conscious rats (dosage p.o. 1.0 mg/kg (Table 2A)) stood at 753%.

Consider `CC(O)c1nc(Cn2nc(-c3ccc(Cl)cc3)n(C[C@H](O)C(F)(F)F)c2=O)nn1-c1cc(F)cc(Cl)c1` (single isomer, unassigned) [Example 15], for which the IC50 came to 4.1 nM on human V2 receptor and 38.4 nM on human V1a receptor. Besides, in the test with conscious rats (dosage p.o. 0.3 mg/kg (Table 2A)), the response vs control in vivo at 0.3 mg/kg came out at 412%.

For the compound `CC(O)c1nc(Cn2nc(-c3ccc(Cl)cc3)n(C[C@H](O)C(F)(F)F)c2=O)nn1-c1cc(Cl)cc(Cl)c1` (single isomer, unassigned) [Example 47], the figures for the IC50 at human V2 receptor and at human V1a receptor were 3.7 nM and 18.9 nM, respectively.

In the case of `CC(O)c1nc(Cn2nc(-c3ccc(Cl)cc3)n(C[C@H](O)C(F)(F)F)c2=O)nn1-c1cc(Cl)cc(Cl)c1` (single isomer, unassigned) [Example 48], the IC50 on human V2 receptor was 2.4 nM; on human V1a receptor, 3.2 nM.

As for `CC(O)c1nc(Cn2nc(-c3ccc(Cl)cc3)n(C[C@H](O)C(F)(F)F)c2=O)nn1-c1cc(Cl)ccc1Cl` (single isomer, unassigned) [Example 50], the figures for the IC50 on human V2 receptor and on human V1a receptor were 10 nM and 1.3 nM, respectively.

As to `CC(O)c1nc(Cn2nc(-c3ccc(Cl)cc3)n(C[C@H](O)C(F)(F)F)c2=O)nn1-c1cc(Cl)ccc1Cl` (single isomer, unassigned) [Example 51], the figures for the IC50 at human V2 receptor and at human V1a receptor were 22.3 nM and 3 nM, respectively.

On to `CC(O)c1nc(Cn2nc(-c3ccc(Cl)cc3)n(C[C@H](O)C(F)(F)F)c2=O)nn1-c1cccc(Cl)c1F` (single isomer, unassigned) [Example 53], for which the IC50 on human V2 receptor amounted to 1.8 nM; at human V1a receptor, 7.9 nM.

`CC(O)c1nc(Cn2nc(-c3ccc(Cl)cc3)n(C[C@H](O)C(F)(F)F)c2=O)nn1-c1cccc(Cl)c1F` (single isomer, unassigned) [Example 54]: the IC50 was 1.6 nM at human V2 receptor and 39.7 nM on human V1a receptor.

With `CC(O)c1nc(Cn2nc(-c3ccc(Cl)cc3)n(C[C@H](O)C(F)(F)F)c2=O)nn1-c1cccc(OC(F)F)c1` (single isomer, unassigned) [Example 56], the IC50 on human V2 receptor stood at 1.4 nM; on human V1a receptor it was 2.4 nM.

For the compound `CC(O)c1nc(Cn2nc(-c3ccc(Cl)cc3)n(C[C@H](O)C(F)(F)F)c2=O)nn1-c1cccc(OC(F)F)c1` (single isomer, unassigned) [Example 57], the IC50 at human V2 receptor is 8.2 nM; on human V1a receptor, 38.2 nM.

Regarding `CC(O)c1nc(Cn2nc(-c3ccc(Cl)cc3)n(C[C@H](O)C(F)(F)F)c2=O)nn1-c1cccc(Cl)c1Cl` (single isomer, unassigned) [Example 62], the IC50 at human V2 receptor was found to be 0.9 nM; at human V1a receptor, 7.8 nM.

In the case of `CC(O)c1nc(Cn2nc(-c3ccc(Cl)cc3)n(C[C@H](O)C(F)(F)F)c2=O)nn1-c1cccc(Cl)c1Cl` (single isomer, unassigned) [Example 63], the values for the IC50 at human V2 receptor and at human V1a receptor were 1.9 nM and 51.6 nM, respectively.

`CC(O)c1nc(Cn2nc(-c3ccc(Cl)cc3)n(C[C@H](O)C(F)(F)F)c2=O)nn1-c1cccc(F)c1F` (single isomer, unassigned) [Example 65]: the 50% inhibitory concentration (IC50) worked out at 3.3 nM on human V2 receptor and 2.5 nM at human V1a receptor.

In the case of `CC(O)c1nc(Cn2nc(-c3ccc(Cl)cc3)n(C[C@H](O)C(F)(F)F)c2=O)nn1-c1cccc(F)c1F` (single isomer, unassigned) [Example 66], the IC50 turned out to be 1.9 nM on human V2 receptor and 4 nM on human V1a receptor.

With `CC(O)c1nc(Cn2nc(-c3ccc(Cl)cc3)n(C[C@H](O)C(F)(F)F)c2=O)nn1-c1cccc(F)c1Cl` (single isomer, unassigned) [Example 67], the values for the IC50 at human V2 receptor and on human V1a receptor were 2.7 nM and 2.1 nM, respectively.

As to `CC(O)c1nc(Cn2nc(-c3ccc(Cl)cc3)n(C[C@H](O)C(F)(F)F)c2=O)nn1-c1cccc(F)c1Cl` (single isomer, unassigned) [Example 68], the IC50 came to 1.3 nM on human V2 receptor and 3.3 nM at human V1a receptor.

In the case of `Cc1ccccc1-n1nc(Cn2nc(-c3ccc(Cl)cc3)n(C[C@H](O)C(F)(F)F)c2=O)nc1C(C)O` (single isomer, unassigned) [Example 71], the values for the IC50 on human V2 receptor and on human V1a receptor were 2.1 nM and 0.6 nM, respectively.

Take `CC(O)c1nc(Cn2nc(-c3ccc(Cl)cc3)n(C[C@H](O)C(F)(F)F)c2=O)nn1-c1ccccc1C(F)(F)F` (single isomer, unassigned) [Example 73]: the IC50 is 7 nM on human V2 receptor and 1.1 nM at human V1a receptor.

Consider `CC(O)c1nc(Cn2nc(-c3ccc(Cl)cc3)n(C[C@H](O)C(F)(F)F)c2=O)nn1-c1ccccc1C(F)(F)F` (single isomer, unassigned) [Example 74], for which the 50% inhibitory concentration (IC50) on human V2 receptor worked out at 24.7 nM; on human V1a receptor, 2.2 nM.

As to `O=c1n(Cc2nc(CO)n(-c3cc(F)cc(F)c3)n2)nc(-c2ccc(Cl)cc2)n1C[C@H](O)C(F)(F)F` [Example 7, 5-(4-Chlorophenyl)-2-{[1-(3,5-difluorophenyl)-5-(hydroxymethyl)-1H-1,2,4-triazol-3-yl]methyl}-4-[(2S)-3,3,3-trifluoro-2-hydroxypropyl]-2,4-dihydro-3H-1,2,4-triazol-3-one], the IC50 was 2.6 nM on human V2 receptor and 7.6 nM at human V1a receptor.

Consider `O=c1n(Cc2nc(CO)n(-c3ccccc3C(F)(F)F)n2)nc(-c2ccc(Cl)cc2)n1C[C@H](O)C(F)(F)F` [Example 8, 5-(4-Chlorophenyl)-2-({5-(hydroxymethyl)-1-[2-(trifluoromethyl)phenyl]-1H-1,2,4-triazol-3-yl}-methyl)-4-[(2S)-3,3,3-trifluoro-2-hydroxypropyl]-2,4-dihydro-3H-1,2,4-triazol-3-one], for which the IC50 on human V2 receptor came out at 10.7 nM; on human V1a receptor it was 1.2 nM.

In the case of `O=c1n(Cc2nc(CO)n(-c3cc(F)ccc3Cl)n2)nc(-c2ccc(Cl)cc2)n1C[C@H](O)C(F)(F)F` [Example 9, 2-{[1-(2-Chloro-5-fluorophenyl)-5-(hydroxymethyl)-1H-1,2,4-triazol-3-yl]methyl}-5-(4-chlorophenyl)-4-[(2S)-3,3,3-trifluoro-2-hydroxypropyl]-2,4-dihydro-3H-1,2,4-triazol-3-one], the IC50 at human V2 receptor came to 2.3 nM; at human V1a receptor, 0.4 nM.

Take `C[C@@H](O)c1nc(Cn2nc(-c3ccc(Cl)cc3)n(C[C@H](O)C(F)(F)F)c2=O)nn1-c1cccc(F)c1` [Example 77, 5-(4-Chlorophenyl)-2-({1-(3-fluorophenyl)-5-[(1R)-1-hydroxyethyl]-1H-1,2,4-triazol-3-yl}-methyl)-4-[(2S)-3,3,3-trifluoro-2-hydroxypropyl]-2,4-dihydro-3H-1,2,4-triazol-3-one]: the results for the IC50 at human V2 receptor and on human V1a receptor were 13.5 nM and 12.5 nM, respectively.

As to `C[C@@H](O)c1nc(Cn2nc(-c3ccc(Cl)cc3)n(C[C@H](O)C(F)(F)F)c2=O)nn1-c1cccc(Cl)c1` [Example 80, 5-(4-Chlorophenyl)-2-({1-(3-chlorophenyl)-5-[(1R)-1-hydroxyethyl]-1H-1,2,4-triazol-3-yl}-methyl)-4-[(2S)-3,3,3-trifluoro-2-hydroxypropyl]-2,4-dihydro-3H-1,2,4-triazol-3-one], the half-maximal inhibitory concentration (IC50) on human V2 receptor worked out at 5.1 nM; on human V1a receptor it was 46.3 nM.
